Patent US7262173B2, “Chemosensitizing with liposomes containing oligonucleotides” (Georgetown University, priority 1997, dated 2007)

Experiments:
[1] = Tissue distribution of raf ODN after i.v. injection; format: in vivo, Balb/c nu/nu mice; settings: 30 mg/kg i.v., free ODN; data not shown
Protocol: FIG. 4: Tissue distribution profiles of LE-ATG-AS raf ODN (SEQ ID NO:1).
Male Balb/c nu/nu mice (Charles River, Raleigh, N.C., USA; 10–12 weeks old) were maintained in the Research Resources Facility of the Georgetown University according to accredited procedure, and fed purina chow and water ad libitum. […] At 5 min, 15 min, 30 min, 1 h, 2 h, 4 h, 8 h, 24 h and 48 h after injection, one animal in each group was bled from the retro-orbital sinus into heparinized tubes under anesthesia, and killed by cervical dislocation.
The extracts were loaded on to 20% polyacrylamide/3 M urea gels and electrophoresed in TBE buffer. […] The radiolabeled probe was generated by 5′-end-labeling of ATG-S′ raf ODN (SEQ ID NO:3) with γ^32-P-ATP using T4 polynucleotide kinase and purification over Chroma Spin-10 columns (Clontech, Palo Alto, Calif., and USA). […] The autoradiographs were scanned using a computer program (ImageQuant software, Molecular Dynamics, Sunnyvale, Calif., and USA), and the amounts of ATG-AS raf ODN (SEQ ID NO:1) in various samples were calculated by comparison to standards.

Raf-1 = Raf-1 expression in normal mouse tissues after i.v. ODN; format: in vivo, Balb/c nu/nu mice; settings: i.v. 6 mg/kg daily for 5 days
Protocol: FIG. 7: Effects of intravenous administration of LE-ATG-AS raf ODN (SEQ ID NO:1) our Raf-1 expression in normal and tumor tissues. Raf-1 expression was examined in liver, kidneys and SQ-20B tumor xenograft of Balb/c nu/nu mice after i.v. injections of 6 mg/kg daily dose of LE-ATG-AS raf ODN (SEQ ID NO:1) (AS) or LE-ATG-S raf ODN (SEQ ID NO:3) (S) for five consecutive days. Control mice (C) received normal saline. Representative data showing Raf-1 expression in lysates normalized for protein content by immunoprecipitation and immunoblotting (top). Quantification data are shown as mean±s.d. from three mice (bottom).
Logarithmically growing SQ-20B cells were injected subcutaneously (2×10^6 cells) in the flank regions on both sides in male Balb/c nu/nu mice under mild anesthesia. Tumors were allowed to grow to a mean tumor volume of 115 mm^3 before initiation of ODN treatment. Two treatment routes were followed: intravenous and intratumoral. For intravenous delivery, mice were randomly divided into six groups. […]
For in vivo expression studies, tumor tissue and organs were homogenized in the cell lysis buffer using Polytron homogenizer (Westbury, N.Y., USA). Raf-1 expression was analyzed in tissue homogenates by immunoprecipitation and immunoblotting as described above.

SQ-20B cells = experiment: Radiation survival dose response assay; format: cell-based, human; settings: free ODN 100 μm
Protocol: The appropriate numbers of SQ-20B cells were seeded in duplicate T-25 tissue culture flasks (Corning, N.Y., USA) in medium containing 20% FBS, and allowed to attach for 8 h at 37° C. […] Irradiations were performed using ^137Cs gamma irradiator (JL Shepard MARK I irradiator) and a dose rate of 114 cGy/min. The cells were irradiated with total doses of 1 Gy, 3 Gy, 5 Gy and 13 Gy, followed by incubation for 2 h. The medium in all flasks was then replaced with 20% FBS containing medium and incubations continued for 7–10 days. Surviving colonies were fixed and stained with 0.5% methylene blue and 0.13% carbol fuchsin in methanol. Colonies containing 50 or more cells were scored and data were fitted to the computer-generated single-hit multitarget and linear-quadratic models of radiation survival response.
SQ-20B cells treated with liposome-encapsulated ATG-AS raf ODN (SEQ ID NO:1) are radiosensitive. Radiation survival dose responses of SQ-20B cells exposed to LE-ATG-AS raf ODN (SEQ ID NO:1), LE-ATG-S raf ODN (SEQ ID NO:3), or blank liposomes are presented in Table 1. […] The single-hit, multitarget (target model) and the linear quadratic model (LQ) are most commonly used to analyze cellular radiation survival. The target model is based on the parameters D0 and fl, where D0 is the inverse of the terminal slope of the survival curve and fl is the extrapolation of this slope to the ordinate. […]

Substance: 5′-GTG-CTCCATTGATGC-3′ (antisense GTGCTCCATTGATGC; DNA, linkages s1 o12 s1 (s phosphorothioate, o phosphodiester), methylation of C not given here) [ATG-AS raf ODN, antisense ODN to translation initiation site of human c-raf-1 cDNA; one terminal base linkage at each end phosphorothioate]
- only time at which intact ODN seen in various organs [1]: 5 min
- inhibition of Raf-1 expression in normal tissues (Raf-1): No inhibition
- dose modifying factor (DMF) (SQ-20B cells): approximately 1.4
